One series deals with OCI-AML2 cells. Nature of the series: Intracellular chloride (SPQ) and cell size (forward light scatter), OCI-AML2. Format: cell-based, human. As to the method:
Intracellular chloride concentration was measured using a fluorescent indicator for chloride, SPQ as previously described.^16 Upon binding halide ions like chloride, SPQ is quenched resulting in a decrease in fluorescence without a shift in wavelength. […] After 15 minutes of incubation with SPQ, cells were diluted 15:1 in HBSS and centrifuged. The supernatant was removed, cells were resuspended in 200 μl of fresh HBSS and incubated for 15 minutes in 37° C. to allow recovery from the hypotonic shock. Cells were then stained with propidium iodide and SPQ fluorescence in the PI negative cells was determined using an LSR-II flow cytometer (Beckton Dickonson, San Jose, Calif.) (excitation 351 nm, emission 485 nm). In parallel, changes in cell size were determined by measuring forward light scatter by flow cytometry. Results were analyzed with FlowJo version 8.8 (TreeStar, Ashland, Oreg.).

Series [1] relates to primary normal hematopoietic cells (PBSC). Description: Cell viability by Annexin V and PI staining, normal hematopoietic cells. Format: cell-based, human. Particulars: 48 hours, concentrations up to 20 μM. Here is the method: Primary human acute myeloid leukemia (AML) samples were isolated from fresh bone marrow and peripheral blood samples of consenting patients. Similarly, primary normal hematopoietic cells were obtained from healthy consenting volunteers donating peripheral blood mononuclear cells
(PBSCs) for stem cell transplantation. The mononuclear cells were isolated from the samples by Ficoll density centrifugation. Primary cells were cultured at 37° C. in IMDM supplemented with 20% FCS and appropriate antibiotics.
(§1) Cell growth and viability was assessed by the MTS assay (Promega, Madison, Wis.) according to the manufacturer's instructions and as previously described.^12 Cell death was measured by Annexin V-fluoroscein isothiocyanate (FITC) and Propidium Iodide (PI; Biovision Research Products, Mountain View, Calif.) staining and flow cytometry according to the manufacturer's instructions and as previously described.^13 To identify CD34+ cells, a normal PBSC sample was co-stained with PE-anti-CD34+ (Beckman Coulter, Marseille France), and APC-anti-CD45 (Becton Dickenson, San Jose Calif.).
Given the cytotoxicity of IVM toward leukemia cell lines, its cytotoxicity was compared to primary normal hematopoietic cells and acute myeloid leukemia (AML) patient samples (n=4 intermediate risk cytogenetics, n=1 good risk cytogenetics, and n=1 unknown cytogenetics). […]

Series [2] has as its system DU145 prostate cancer cells. Description: Cell death by Annexin V and PI staining in DU145 cells. Format: cell-based, human. As to conditions: 24 hours. Here is the method:
as §1

The subject of series [3] is DU145 and PPC-1 cells as well as primary normal hematopoietic cells. Nature of the series: Plasma membrane potential, DiBAC4(3) staining, resistant cells. Format: cell-based, human. Particulars: up to 6 μM for up to 24 hours. Here is the method:
Plasma membrane potential was measured as previously described.^18 Briefly, cells treated with IVM or buffer control in RPM1, chloride replete medium (140 mM sodium chloride, 5 mM potassium chloride, 1 mM magnesium sulfate, 1.8 mM calcium acetate, 10 mM glucose, 10 mM HEPES and 0.1% (wt/v) BSA), or chloride free media where equimolar gluconate salts of sodium and potassium replaced the sodium chloride in the chloride replete medium. After incubation, cells were stained with DiBAC4(3) (final concentration 30 nM) and fluorescence determined by flow cytometry (BD FACS Canto, Becton Dickinson, San Jose, Calif.) (excitation=488 nm, emission=516 nm) Analysis was conducted using FACSDiva Software (BD Biosciences). Calibration curves were prepared using phosphate buffers with varying potassium ion concentrations as previously described.^18
In nematodes, increases in intracellular chloride after IVM treatment cause membrane hyperpolarization. Therefore, the effects of IVM on plasma and mitochondrial membrane polarization was evaluated in leukemia cells. […] At increasing times after incubation, plasma membrane potential was measured by staining cells with DiBAC4(3) and flow cytometric analysis.

The subject of the next series is primary AML samples. Nature of the series: Clonogenic (methylcellulose colony forming) assay, primary AML. Format: cell-based, human. As to conditions: ivermectin 6 μM; in 3/6 primary AML samples. As to the method:
(§2) To assess clonogenic growth, primary AML cells or granulocyte colony-stimulating factor (G-CSF) mobilized PBSCs (4×10^5/mL) were treated with IVM or buffer control for 24 hours. After treatment, cells were washed and 10^5 cell/mL were plated in duplicate in MethoCult GF H4434 medium (StemCell Technologies, Vancouver, BC) containing 1% methycellulose in IMDM, 30% FCS, 1% bovine serum albumin, 3 U/mL of recombinant human erythropoietin, 10^−4 M of 2-mercaptoethanol, 2 mM of L-glutamine, 50 ng/mL of recombinant human stem cell factor, 10 ng/mL of GM-CSF, and 10 ng/mL of rh IL-3. Alternatively, primary cells were plated directly into MethoCult GF H4434 medium with ivermectin. Seven days (AML samples) or 14 days (normal PBCS) after plating, the number of colonies containing 10 or more cells for AML or over 100 cells for normal samples was counted as previously described.^14
(§3) Ivermectin was also evaluated in clonogenic assays in primary normal hematopoietic and AML cells. Ivermectin (6 μM) had minimal effects on the clonogenic growth of normal hematopoetic cells (n=3) with <15% reduction in clonogenic growth. In contrast, ivermectin reduced clonogenic growth by ≧40% in 3/6 primary AML samples (FIG. 1D). Similar effects were noted when primary cells were directly plated into clonogenic assays with ivermectin (FIG. 1G).

Series [4] relates to normal hematopoetic cells. Nature of the series: Clonogenic (methylcellulose colony forming) assay, normal cells. Format: cell-based, human. As to conditions: ivermectin 6 μM, n=3. Here is the method: as §2, §3
The next series deals with monkeys. As to conditions: oral; cited from earlier work.
Series [5] deals with DU145 and PPC-1 cells; normal hematopoietic cells. Nature of the series: Reactive oxygen species, Carboxy-H2DCFDA staining, resistant cells. Format: cell-based, human.

On to ivermectin, for which the “intracellular chloride, SPQ fluorescence” value in the series on OCI-AML2 cells (10 μM IVM, 2 hours) is “decreased SPQ fluorescence”. The cell size entry in the series on OCI-AML2 cells (2 hours of treatment, flow cytometry) is given as “caused an increase in cell size”. Moreover, the “induction of cell death” value in series [1] is recorded as “did not induce cell death”. The “sensitivity to IVM induced cell death” value in series [2] is recorded as “more resistant to IVM induced cell death”. Moreover, the plasma membrane potential result in series [3] is listed as “did not show changes in their plasma membrane potential”. The “reduction in clonogenic growth” value in the series on primary AML samples is at least 40%; in series [4], under 15%. Further, the LD50 result in the series on monkeys is listed as “above 24 mg/kg”. The ROS generation entry in series [5] (DU145 and PPC-1 cells) is on record as “did not show changes in ROS generation”; in series [5] (normal hematopoietic cells) it was “not normal hematopoietic cells”.

The record behind these values is US20120225123A1, “Use of Synergistic Combinations of an Avermectin and an Antineoplastic Compounds for the Treatment of Hematological Malignancies” (UNIVERSITY HEALTH NETWORK, priority 2009, published 2012).
